Experimental data: the supplement of paper PMC11061612

test system: U-698-M; conditions: B-Cell Non-Hodgkin's Lymphoma, max 0.001 µM
Outline: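 In 1536-well plates, cancer cell lines in 7.5 μl DMEM/F12 or RPMI with 10% FBS spent 24 hours at 37°C and 5% CO2 and were then dosed for 72 hours with final DMSO typically 0.2%. Viability was read by CellTiter-Glo 2.0 luminescence and scaled between blank-well and DMSO-well means. The single-agent IC50 was fitted from dose responses using a logistic curve in a non-linear mixed effects model, and that logistic curve had two parameters.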

| SMILES | IC50, cell viability 72 h |
| --- | --- |
| COc1cc2c(cc1OCCCCCOc1cc3c(cc1OC)C(=O)N1C=C(C)C[C@H]1C=N3)N=C[C@@H]1CC(C)=CN1C2=O [SG3199] | > 1 nM |

same assay, conditions: B-Cell Non-Hodgkin's Lymphoma, max 0.3 µM

| SMILES | IC50, cell viability 72 h |
| --- | --- |
| Nc1ccn([C@@H]2O[C@H](CO)[C@@H](O)C2(F)F)c(=O)n1 [Gemcitabine] | 130 nM |
| CC(C)n1c(=O)n(C)c2cnc3cc(F)c(-c4ccc(OCCCN5CCCCC5)nc4)cc3c21 [AZD1390] | > 300 nM |

same assay, conditions: B-Cell Non-Hodgkin's Lymphoma, max 1 µM

| SMILES | IC50, cell viability 72 h |
| --- | --- |
| CCN(CCO)CCCOc1ccc2c(Nc3cc(CC(=O)Nc4cccc(F)c4)[nH]n3)ncnc2c1 [AZD2811] | > 1000 nM |
| COc1nnc2ccc(N3CCC(c4ccc(OCCN5CCN(C)C(=O)[C@H]5C)cc4)CC3)nn12 [AZD5153] | 265 nM |
| COc1cccc2c1C(=O)c1c(O)c3c(c(O)c1C2=O)C[C@@](O)(C(=O)CO)C[C@@H]3O[C@H]1C[C@H](N)[C@H](O)[C@H](C)O1 [Doxorubicin] | 495 nM |
| CC(=O)Nc1cccc(-n2c(=O)n(C3CC3)c(=O)c3c(Nc4ccc(I)cc4F)n(C)c(=O)c(C)c32)c1 [Trametinib] | > 1000 nM |
| C[C@@H](c1ccc2nccn2c1)n1nnc2ncc(-c3cnn(C)c3)nc21 [Savolitinib] | > 1000 nM |
| COc1cccc(OCCCN)c1-c1cc(Nc2cnc(C#N)cn2)n[nH]1 [Prexasertib] | 11.1 nM |

same assay, conditions: B-Cell Non-Hodgkin's Lymphoma, max 2 µM

| SMILES | IC50, cell viability 72 h |
| --- | --- |
| Cc1nc(Nc2ncc(C(=O)Nc3c(C)cccc3Cl)s2)cc(N2CCN(CCO)CC2)n1 [Dasatinib] | > 2000 nM |

same assay, conditions: B-Cell Non-Hodgkin's Lymphoma, max 3 µM

| SMILES | IC50, cell viability 72 h |
| --- | --- |
| CC(=O)O[C@H]1C(=O)[C@@]2(C)[C@H]([C@H](OC(=O)c3ccccc3)[C@]3(O)C[C@H](OC(=O)[C@H](O)[C@@H](NC(=O)c4ccccc4)c4ccccc4)C(C)=C1C3(C)C)[C@]1(OC(C)=O)CO[C@@H]1C[C@@H]2O [Paclitaxel] | 5.9 nM |
| CN(C)CCCOc1ccc(-c2ccc3ncc4c(c3c2)n(C2CCOCC2)c(=O)n4C)cn1 [AZD0156] | > 3000 nM |

same assay, conditions: B-Cell Non-Hodgkin's Lymphoma, max 5 µM

| SMILES | IC50, cell viability 72 h |
| --- | --- |
| O=C(Nc1ccc2[nH]nc(-c3ccncc3)c2c1)[C@@H]1CCN(CC(=O)N2CCN(c3ccc(-c4ncccn4)cc3)CC2)C1 | > 5000 nM |

same assay, conditions: B-Cell Non-Hodgkin's Lymphoma, max 10 µM

| SMILES | IC50, cell viability 72 h |
| --- | --- |
| C[C@@H](Nc1cc(F)cc(F)c1)c1cc(C(=O)N(C)C)cc2c(=O)cc(N3CCOCC3)oc12 [AZD8186] | > 10000 nM |
| N.N.O=C([O-])C1(C(=O)[O-])CCC1.[Pt+2] [Carboplatin] | > 10000 nM |
| NC1(c2ccc(-c3nc4ccn5c(=O)[nH]nc5c4cc3-c3ccccc3)cc2)CCC1 [MK-2206] | > 10000 nM |
| NC1(C(=O)N[C@@H](CCO)c2ccc(Cl)cc2)CCN(c2ncnc3[nH]ccc23)CC1 [AZD5363] | 8270 nM |
| COc1cc(Nc2ncc3c(n2)-c2ccc(Cl)cc2C(c2c(F)cccc2OC)=NC3)ccc1C(=O)O [Alisertib] | 8030 nM |
| O=C(c1cc(Cc2n[nH]c(=O)c3ccccc23)ccc1F)N1CCN(C(=O)C2CC2)CC1 [Olaparib] | > 10000 nM |
| CC(=O)c1c(C)c2cnc(Nc3ccc(N4CCNCC4)cn3)nc2n(C2CCCC2)c1=O [Palbociclib] | > 10000 nM |
| COc1cc([C@@H]2c3cc4c(cc3[C@@H](O[C@@H]3O[C@@H]5CO[C@@H](C)O[C@H]5[C@H](O)[C@H]3O)[C@H]3COC(=O)[C@H]23)OCO4)cc(OC)c1O [Etoposide] | 4930 nM |
| Cc1cc2ncnn2cc1Nc1ncc2c(n1)n(C1CCOCC1)c(=O)n2C [AZD7648] | > 10000 nM |
| N#Cc1cnc(Nc2cc(NC[C@H]3CNCCO3)c(C(F)(F)F)cn2)cn1 [SRA737] | 2860 nM |
| C[C@@H](Oc1cc(-c2cnn(C3CCNCC3)c2)cnc1N)c1c(Cl)ccc(F)c1Cl [Crizotinib] | 5060 nM |

same assay, conditions: B-Cell Non-Hodgkin's Lymphoma, max 20 µM

| SMILES | IC50, cell viability 72 h |
| --- | --- |
| O=c1[nH]cc(F)c(=O)[nH]1 [5-Fluorouracil] | > 20000 nM |
